# According to US10836768B2, “N-acyl-(3-substituted)-(8-substituted)-5,6-dihydro-[1,2,4]triazolo[4,3-a]pyrazines as selective NK-3 receptor antagonists” (OGEDA SA, priority 2013, dated 2020):
# Experiment: Determination of plasma protein binding (equilibrium dialysis)
# Type: in vitro ADME
# Settings: bound drug fraction to plasma protein; 4 hours at 37° C.
# Source text: Determination of Plasma Protein Binding
# The pharmacokinetic and pharmacodynamic properties of chemicals/drugs are largely a function of the reversible binding of chemicals to plasma or serum proteins. […] Consequently, the extent of the plasma protein binding (PPB) of a compound influences its action as well as its distribution and elimination.
# The determination of plasma protein binding (PPB) of a compound is enabled by equilibrium dialysis, an accepted and standard method for reliable estimation of the non-bound drug fraction in plasma. RED (Rapid Equilibrium Dialysis) device insert is made of two side-by-side chambers separated by an O-ring-sealed vertical cylinder of dialysis membrane (MWCO ˜8,000). […] After 4 hours incubation at 37° C. under shaking, an aliquot is removed from each chamber and analyzed by a LC-MS/MS procedure enables the determination of both free and bound drug.
# The “free fraction” may be calculated as 100%−% rPPB (i.e. the complementary percentage of that disclosed in Table 4, corresponding to the drug concentration that is unbound and therefore available to engage biological target and elicit pharmacological activity).
row,Exposure (% rPPB),SMILES
1,43%,"CCc1nsc(-c2nnc3n2CCN(C(=O)c2ccc(F)cc2)C3C)n1 (racemic) [Compound 39, (3-(3-ethyl-1,2,4-thiadiazol-5-yl)-8-methyl-5,6-dihydro-[1,2,4]triazolo[4,3-a]pyrazin-7(8H)-yl)(4-fluorophenyl)methanone]"
2,26%,"Cc1nsc(-c2nnc3n2CCN(C(=O)c2cc(F)c(F)c(F)c2)[C@@H]3C)n1 [Compound 7, (R)-(8-methyl-3-(3-methyl-1,2,4-thiadiazol-5-yl)-5,6-dihydro-[1,2,4]triazolo[4,3-a]pyrazin-7(8H)-yl)(3,4,5-trifluorophenyl)methanone]"
3,19%,"COc1cc(C(=O)N2CCn3c(-c4nc(C)ns4)nnc3[C@H]2C)ccc1F [Compound 25, (R)-(4-fluoro-3-methoxyphenyl)(8-methyl-3-(3-methyl-1,2,4-thiadiazol-5-yl)-5,6-dihydro-[1,2,4]triazolo[4,3-a]pyrazin-7(8H)-yl)methanone]"
4,23%,"Cc1nsc(-c2nnc3n2CCN(C(=O)c2ccc(F)cc2F)[C@@H]3C)n1 [Compound 18, (R)-(2,4-difluorophenyl)(8-methyl-3-(3-methyl-1,2,4-thiadiazol-5-yl)-5,6-dihydro-[1,2,4]triazolo[4,3-a]pyrazin-7(8H)-yl)methanone]"
5,53%,"Cc1nsc(-c2nnc3n2CCN(C(=O)c2ccc(F)c(Cl)c2)[C@@H]3C)n1 [Compound 6, (R)-(3-chloro-4-fluorophenyl)(8-methyl-3-(3-methyl-1,2,4-thiadiazol-5-yl)-5,6-dihydro-[1,2,4]triazolo[4,3-a]pyrazin-7(8H)-yl)methanone]"
6,34%,"CCC1c2nnc(-c3nc(C)ns3)n2CCN1C(=O)c1ccc(F)cc1 (racemic) [Compound 23, (8-ethyl-3-(3-methyl-1,2,4-thiadiazol-5-yl)-5,6-dihydro-[1,2,4]triazolo[4,3-a]pyrazin-7(8H)-yl)(4-fluorophenyl)methanone]"
7,12%,"Cc1noc(-c2nnc3n2CCN(C(=O)c2ccc(F)cc2)[C@@H]3C)n1 [Compound 28, (R)-(4-fluorophenyl)(8-methyl-3-(3-methyl-1,2,4-oxadiazol-5-yl)-5,6-dihydro-[1,2,4]triazolo[4,3-a]pyrazin-7(8H)-yl)methanone]"
8,47%,"C[C@@H]1c2nnc(-c3nc(C(C)(F)F)no3)n2CCN1C(=O)c1ccc(F)cc1 [Compound 43, (R)-(3-(3-(1,1-difluoroethyl)-1,2,4-oxadiazol-5-yl)-8-methyl-5,6-dihydro-[1,2,4]triazolo[4,3-a]pyrazin-7(8H)-yl)(4-fluorophenyl)methanone]"
9,27%,"CC[C@@H]1c2nnc(-c3nc(C)ns3)n2CCN1C(=O)c1ccc(F)cc1 [Compound 22, (R)-(8-ethyl-3-(3-methyl-1,2,4-thiadiazol-5-yl)-5,6-dihydro-[1,2,4]triazolo[4,3-a]pyrazin-7(8H)-yl)(4-fluorophenyl)methanone]"
10,48%,"CCC[C@@H]1c2nnc(-c3nc(C)ns3)n2CCN1C(=O)c1ccc(F)cc1 [Compound 24, (R)-(4-fluorophenyl)(3-(3-methyl-1,2,4-thiadiazol-5-yl)-8-propyl-5,6-dihydro-[1,2,4]triazolo[4,3-a]pyrazin-7(8H)-yl)methanone]"
11,31%,"CC(F)c1noc(-c2nnc3n2CCN(C(=O)c2ccc(F)cc2)[C@@H]3C)n1 (stereo partly drawn) [Compound 45, ((8R)-3-(3-(1-fluoroethyl)-1,2,4-oxadiazol-5-yl)-8-methyl-5,6-dihydro-[1,2,4]triazolo[4,3-a]pyrazin-7(8H)-yl)(4-fluorophenyl)methanone]"
12,21%,"Cc1nsc(-c2nnc3n2CCN(C(=O)c2ccc(F)cc2)C3C)n1 (racemic) [Compound 14, (4-fluorophenyl)(8-methyl-3-(3-methyl-1,2,4-thiadiazol-5-yl)-5,6-dihydro-[1,2,4]triazolo[4,3-a]pyrazin-7(8H)-yl)methanone]"
